Read-outs that look alike come from different tables or passages of the source.
How the values were obtained:
[1] = system: acute cerebral ischemia-reperfusion injury in rats; format: in vivo; details: for Scope of cerebral infarction (%): Edaravone 6.0 mg/kg i.v., TTC staining 24 hours after ischemia, Mean ± SEM, model group 42.53 ± 3.27
[2] = system: rat model of hemorrhagic stroke; experiment: rat model of hemorrhagic stroke by intracerebral injection of autologous arterial blood; format: in vivo; details: annexin A5 injection via caudal vein
Description: (§1) It was confirmed by the rat model of ischemia-reperfusion that the annexin A5 could reduce the area of cerebral infarction, improve the symptoms of neurological deficits and promote long-term motor recovery in rats. For example, a rat model of focal cerebral ischemia was established by light irradiation, and then annexin A5 was injected into the caudal vein. […] Take another example, the rat model of hemorrhagic stroke was established by intracerebral injection of autologous arterial blood, and then the rats were injected with annexin A5 injection via caudal vein.

[3] = system: primary purified microglia; experiment: LPS-induced over activation of primary purified microglia; format: cell-based; details: LPS-stimulated primary microglia; MTT, cellular immunochemistry
Source text: Microglia plays an important role in the inflammatory process of the central nervous system. The moderate activation of microglia can protect neurons, but the over activated microglia will release a large number of neurotoxic factors, such as […], which will lead to the occurrence of neurodegenerative diseases. Lipopolysaccharide (LPS) can activate microglia, which leads to the over activation of microglia and the damage of neurons. A5 was used to observe the effect of LPS on the over activation of microglia.
During the experiment, LPS was used to stimulate the primary purified microglia as the control group, and A5 protein was added as the experimental group. For the above treatment, MTT method was used to detect cell viability, and cellular immunochemistry method was used to observe cell morphological changes. […] Therefore, A5 protein can be used to inhibit the over activation of immune cells in the brain, such as microglia.

[4] = system: SD rats; experiment: Toxicity of A5 protein in single intravenous injection in SD rats; format: in vivo
Description: In this study, A5 protein was injected intravenously once in SD rats to observe the acute toxicity, severity and main toxic target organs. The dosage was 0 (blank adjuvant), 1000, 3000 and 9000 μg/kg respectively. After the intravenous injection, the animal's posture, gait, reaction, nerve activity, appetite, fur, eyes, ears, mouth, nose, limbs, breath, feces and other clinical symptoms were observed continuously. After that, the recovery from toxic reaction was observed continuously until the 14th day after administration. The animals were dissected and examined for macropathology 15 days after administration. […] The maximum-tolerated dose (MTD) of single intravenous injection of A5 protein was more than […].

[5] = system: cynomolgus monkeys; experiment: Toxicity of A5 protein in single intravenous injection in cynomolgus monkeys; format: in vivo
Description: A single intravenous injection of A5 protein was used to observe the acute toxicity and its severity and main toxic target organs in cynomolgus monkeys. The dosage was 0 (blank adjuvant), 500, 1500 and 4500 μg/kg respectively. After the single intravenous injection, observe the clinical symptoms of the animals (including feces, appearance, respiration, nerve reaction, activity status, etc.) until the 15th day after the administration. After administration, the food intake was measured once a day and the body weight was measured once a week. The body temperature, blood pressure and electrocardiograph (ECG) of the animals were measured before and after administration on the day of administration, and again on the 1st, 7th and 15th day of administration. Hematology (including blood coagulation) and serum biochemical examination were carried out for all animals on the 1st, 7th and 15th day after administration, and urine examination was carried out on the 14th day after administration. On the 15th day after administration, the animals were dissected for macropathological examination, and if necessary, for histopathological examination. […] In this experiment, the maximum-tolerated dose (MTD) of cynomolgus monkeys was more than […].

[6] = system: cortical neurons; experiment: NMDA-induced excitotoxic damage on cortical neurons; format: cell-based, SD rats; details: A5 pretreatment then NMDA, compared with NMDA group; trypan blue, TUNEL, immunofluorescence
Source text: Example 5 studied the neuroprotective effect of A5 protein on NMDA (N-methyl-D-aspartate)—induced excitotoxic damage on cortical neurons in rats. NMDA can activate NMDA receptor to increase Ca^2+ content in brain tissue, and NOS is activated in a large amount, which leads to a series of physiological or pathological changes such as the synthesis of a large number of NO, causing damage to neurons in brain. In order to observe the neuroprotective effect of A5 protein on neuronal damage induced by excitotoxicity, the neuron was pretreated with A5 protein.
In the experiment, 17 day embryonic SD rats were selected and the cortical neurons were cultured. Then the neurons were divided into control group, NMDA group and A5 pretreatment group. The neurons in NMDA group were added with NMDA for exposure, and the neurons in A5 pretreatment group were incubated with A5 protein for a period of time, and then added with NMDA. For different treatment groups, trypan blue staining was used to evaluate cell viability, TUNEL staining was used to detect apoptosis cells and immunofluorescence cytochemistry was used to detect neuron morphology.

[7] = system: co-cultured spontaneously transformed endothelial cell line and purified rat astrocytes; experiment: blood-brain barrier (BBB) model in vitro; format: cell-based; details: BBB model injured after stimulation, then treated with A5 protein
Source text: Blood brain barrier is composed of three components: brain microvascular endothelial cells, astrocytes and basement membrane. The damage of blood-brain barrier is one of the important pathology of stroke.
In the experiment, the blood-brain barrier model was established by co-culturing spontaneously transformed endothelial cell line and purified rat astrocytes. The blood-brain barrier (BBB) model in vitro was injured after stimulation, and then treated with A5 protein.

[8] = system: rat model of focal cerebral ischemia; experiment: rat model of focal cerebral ischemia established by light irradiation; format: in vivo; details: annexin A5 injected into the caudal vein
Description: as §1

[9] = system: primary cortical neurons; experiment: Oxygen glucose deprivation (OGD) model with primary cortical neurons; format: cell-based; details: 8 hours anoxic culture, A5 in DMEM during 24 hours reoxygenation; CCK-8, flow cytometry
Description: Oxygen glucose deprivation (OGD) model is a stimulation model simulating ischemia/hypoxia at the cell level. By changing the cell culture conditions, such as putting the cells into the hypoxia box or into the sugar free medium, the damage of cells under the condition of ischemia/hypoxia is simulated.
OGD model was established with primary cortical neurons. The cells in the culture plate were washed twice with PBS, and then the glucose-free DMEM exchanged with 95% N2+5% CO2 for 30 minutes was added. Then the cells were quickly placed in 37° C., 94% N2+1% O2+5% CO2 hypoxia incubator. After 8 hours of anoxic culture, the corresponding DMEM medium (i.e. DMEM medium containing A5) was added, and then put the plate into a 37° C. 5% CO2 cell incubator for 24 hours of reoxygenation. After 24 hours of culture, morphological changes were observed under inverted microscope, cell survival rate was detected by CCK-8 colorimetry and apoptosis rate was detected by flow cytometry. At the same time, the treatment group of normoxia and normal glucose was set as the control group.

Compound: CC1=NN(c2ccccc2)C(=O)C1 [Edaravone]
- Scope of cerebral infarction (%) [1]: 35.93 ± 3.94%
- Scope of cerebral infarction (%) ([1]; listed as edaravone): trend of reducing

Compound: A5: recombinant human full-length annexin A5 expressed in E. coli, SEQ ID NO:1, 319 amino acids, N-terminal alanine not acetylated
- area of cerebral infarction [2]: decreased
- neurological deficit symptoms [2]: significantly improved
- over activation of microglia induced by LPS [3]: inhibit the over activation of microglia induced by LPS
- macropathological examination of tissues and organs ([4]; 15 days after administration): no abnormality was found
- weight changes ([4]; female and male animals in the administration group): normal
- clinical symptoms ([4]; single i.v. 1000, 3000 and 9000 μg/kg, observed to day 14): normal
- prothrombin time (PT), activated partial thromboplastin time (APTT) and thrombin time (TT) ([5]; 1st day and 15th day after administration): no significant change
- clinical symptoms, injection site, body weight, food intake, body temperature, blood pressure, ECG, urinalysis, serum biochemical and pathological examination ([5]; single i.v. 500, 1500 and 4500 μg/kg, to day 15): no significant changes
- damage of excitatory toxicity to neurons [6]: reduce the damage of excitatory toxicity to neurons
- repair of damaged blood-brain barrier [7]: repair the damaged blood-brain barrier
- area of cerebral infarction [8]: decreased significantly
- neurological deficit symptoms [8]: improved
- damage of neurons caused by oxygen glucose deprivation [9]: reduce the damage of neurons caused by oxygen glucose deprivation
- bleeding risk ([1]; experimental group treated with annexin A5, MCAO rats): no bleeding risk
